According to US8936941B2, “Compositions useful for cancer detection and treatment, a cancer stem cell model, and methods of production and use thereof” (priority 2008, dated 2015):

Tests used:
Assay type in all cases: cell-based, human
[1] = test system: let-7a miRNA; test: pLet7a-Luc luciferase reporter gene assay in HCT116 cells; settings: normalized to Renilla luciferase
Protocol: Luciferase reporter gene assay. pLet7a-Luc reporter vector contains a let-7a miRNA specific binding site at the 3′UTR of the firefly (Photinus pyralis) luciferase gene obtained from Signosis Inc (FIG. 26). HCT116 and SW480 cells were transfected with the pLet7a-Luc reporter vector, Renilla luciferase expressing plasmid pRL-TK (Promega) along with DCAMKL-1 or scrambled siRNA using Transfectol™ (Ambion Inc.). Luciferase activity was determined as per the manufacturer's instructions (Dual-Luciferase Reporter Assay System; Promega) using a Monolight 2010 luminometer (Analytical Luminescence Laboratory, San Diego, Calif.) as described earlier [Stadler et al., 2008; Sossey-Alaoui et al., 1999]. The activity, normalized to Renilla Luciferase activity, is presented as relative luciferase units relative to control with ±SEM values. Assays were performed in triplicate wells and experiments were repeated 3 times.

[2] = test system: DCAMKL-1; test: siRNA knockdown of DCAMKL-1 in BxPC3 pancreatic cancer cells, real-time RT-PCR
DCAMKL-1, sequence (O15075 other isoform, or with tags, fused parts or gaps): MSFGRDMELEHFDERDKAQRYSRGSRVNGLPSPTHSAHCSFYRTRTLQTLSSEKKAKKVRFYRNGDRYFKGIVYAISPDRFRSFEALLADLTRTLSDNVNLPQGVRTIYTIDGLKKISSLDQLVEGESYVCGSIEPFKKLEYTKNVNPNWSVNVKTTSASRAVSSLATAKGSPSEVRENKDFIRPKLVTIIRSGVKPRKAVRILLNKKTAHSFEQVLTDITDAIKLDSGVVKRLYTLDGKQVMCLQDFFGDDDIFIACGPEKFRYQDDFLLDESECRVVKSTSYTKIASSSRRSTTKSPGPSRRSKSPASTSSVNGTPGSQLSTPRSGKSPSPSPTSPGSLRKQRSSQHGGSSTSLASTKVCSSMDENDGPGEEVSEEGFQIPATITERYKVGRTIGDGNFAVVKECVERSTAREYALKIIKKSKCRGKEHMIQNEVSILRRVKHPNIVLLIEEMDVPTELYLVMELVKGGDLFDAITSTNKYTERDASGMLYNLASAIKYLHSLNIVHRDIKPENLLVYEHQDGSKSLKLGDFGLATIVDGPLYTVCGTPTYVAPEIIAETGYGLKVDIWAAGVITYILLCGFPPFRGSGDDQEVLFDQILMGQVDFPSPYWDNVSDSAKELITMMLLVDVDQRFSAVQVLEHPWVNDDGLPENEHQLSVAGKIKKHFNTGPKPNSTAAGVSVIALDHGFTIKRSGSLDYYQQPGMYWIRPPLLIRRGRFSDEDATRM
Protocol: (§1) Cell Culture: AsPC-1 and BxPC3 human pancreatic adenocarcinoma cell lines were obtained from the American Type Culture Collection and grown in Dulbecco's modified Eagle medium (DMEM) supplemented with 10% fetal bovine serum and 100 U/mL penicillin-streptomycin in a humidified chamber at 37° C. with 5% CO2.
(§2) Silencer RNA: DCAMKL-1 small interfering RNA (siRNA) (si-DCAMKL-1) sequence targeting the coding region of DCAMKL-1 (accession No. NM_004734; SEQ ID NO:1) ([…]tt (SEQ ID NO:3)) and scrambled siRNAs (si-Scr) not matching any of the human genes were obtained (Ambion Inc, Austin, Tex.) and transfected using siPORT™ NeoFX™ (Ambion, Inc).
(§3) Real-time Reverse Transcription-Polymerase Chain Reaction Analyses: Total RNA isolated from human pancreatic cancer cells or cells sorted from normal mouse pancreas were subjected to reverse transcription with Superscript II RNase H-Reverse Transcriptase and random hexanucleotide primers (Invitrogen, Carlsbad, Calif.). […] The changes in mRNA were expressed as fold change relative to control with ±SEM value.
(§4) miRNA Analysis: total RNA isolated from human pancreatic cancer cell lines or cells sorted from normal mouse pancreas was subjected to reverse transcription with Superscript II RNase H-Reverse Transcriptase and random hexanucleotide primers (Invitrogen). […] The changes in pri-miRNA were expressed as fold change relative to control with ±SEM values.

[3] = test system: DCAMKL-1; test: siRNA knockdown of DCAMKL-1 in AsPC-1 pancreatic cancer cells, real-time RT-PCR; settings: AsPC-1 cells
Protocol: as §1, §2
as §3, with “Calif.). The complementary DNA (cDNA) was subsequently used to perform real-time polymerase chain reaction (PCR) by SYBR chemistry (SYBR Green I; Molecular Probes, Eugene, Oreg.) for specific transcripts using gene specific primers and Jumpstart Taq DNA polymerase (Sigma—Aldrich, St. Louis, Mo.).” for “Calif.).”
as §4, with “(Invitrogen). The cDNA was subsequently used to perform real-time PCR by SYBR chemistry (SYBR Green I; Molecular Probes) for pri-let-7a, pri-miR-144 and pri-miR-200a transcripts using specific primers and Jumpstart Taq DNA polymerase (Sigma—Aldrich).” for “(Invitrogen).”

[4] = test system: let-7 family binding sites (similar to KRAS 3' UTR); test: KRAS-Luc luciferase reporter gene assay in AsPC-1 cells
Description: Luciferase Reporter Gene Assay: pLet7a-Luc reporter vector contains a let-7a miRNA specific binding site at the 3′ UTR of the firefly (Photinus pyralis) luciferase gene, pMiR-144-Luc reporter vector containing miR-144 miRNA specific binding site at the 3′UTR of the firefly luciferase gene and KRAS-Luc reporter vector containing specific binding sites for let-7 family members at the 3′UTR of the firefly luciferase gene were obtained from Signosis, Inc. (Sunnyvale, Calif.). Human pancreatic cancer cell lines were transfected with the pLet7a-Luc, pMiR-144-Luc and KRAS-Luc reporter vectors separately with Renilla luciferase expressing plasmid pRL-TK (Promega) along with DCAMKL-1, or scrambled siRNA-using siPORT™ NeoFX™ transfection reagent (Ambion, Inc.). Luciferase activity was determined as per the manufacturer's instructions (Dual Luciferase Reporter Assay System; Promega) using a BioTek Synergy HT (Winooski, Vt.) as described herein above. The activity, normalized to Renilla luciferase activity, is presented as relative luciferase units relative to control with ±SEM values. Assays were performed in triplicate wells, and experiments were repeated 3 times.

si-DCAMKL-1: siRNA targeting the coding region of DCAMKL-1 (NM_004734), sequence GGGAGUGAGAACAAUCUAC (SEQ ID NO:3) (chemistry not given here; listed as Homo sapiens)
luciferase activity (let-7a binding site at 3' UTR) [1]: dose dependent reduction | increase in pri-let-7a miRNA ([2]; compared to control and siSCR): 3 fold | Notch1 mRNA ([2]; compared to siSCR or control): significant decrease | E-cadherin expression [3]: upregulation | Notch-1 expression [3]: significant and a dose dependent downregulation | Slug mRNA expression [3]: downregulation | Snail mRNA expression [3]: downregulation | Twist mRNA expression [3]: downregulation | ZEB1 expression [3]: downregulation | ZEB2 expression [3]: downregulation | c-Myc expression [3]: significant and a dose dependent downregulation | pri-miR-200a expression [3]: upregulation | increase in pri-miR-144 miRNA expression ([3]; compared to control and siSCR): 2.5 fold | reduction of c-Myc mRNA expression ([3]; compared to control and siSCR): 50% | reduction in KRAS mRNA expression ([3]; compared to control or siSCR): 45% | reduction in Notch-1 mRNA ([3]; compared to control or siSCR): 50% | DCAMKL-1 mRNA expression ([3]; compared to siSCR or untreated): decreases | DCAMKL-1 protein ([3]; compared to siSCR or untreated): decreases | induction of pri-let-7a miRNA ([3]; real-time RT-PCR): 3 fold | luciferase activity (KRAS-Luc, let-7 family binding sites) [4]: dose-dependent reduction
